Read-outs that look alike come from different tables or passages of the source. Strand notation (5' to 3'): a small letter for the sugar, then the base; units joined by * are phosphorothioate-linked, units joined directly phosphodiester-linked; [ ] holds rarer units or linkages, { } end groups; capitals alone tell only the bases. e = 2'-O-(2-methoxyethyl) (MOE); [5mC] = 5-methylcytosine; d = 2'-deoxy (DNA)
Legend:
[1] = set-up: species or system Sprague-Dawley rats; conditions: rat, in vivo, sc, 20 mg/kg
Protocol: The concentration of the full-length oligonucleotide as well as the total oligonucleotide concentration (including the degraded form) was measured. The method used is a modification of previously published methods (Leeds et al., 1996; Geary et al., 1999) which consist of a phenol-chloroform (liquid-liquid) extraction followed by a solid phase extraction. An internal standard (ISIS 355868, a 27-mer 2′-O-methoxyethyl modified phosphorothioate oligonucleotide, […], designated herein as SEQ ID NO: 270) was added prior to extraction. […] The results are presented in Tables 91 and 92, expressed as μg/g liver or kidney tissue. Half-lives were then calculated using WinNonlin software ([…]).

[2] = Tolerability in CD1 mice: liver function (Example 43); format: in vivo; set-up: Albumin: unit not given here; conditions: 50 mg/kg s.c. twice per week for 6 weeks, plasma
[3] = Tolerability in CD1 mice: body weight and organ weight (Example 43); format: in vivo; conditions: 50 mg/kg s.c. twice per week for 6 weeks, end of study
Factor 11 protein = Factor 11 protein in monkey plasma by sandwich ELISA (Example 45); format: in vivo, cynomolgus monkeys; conditions: escalating dose regimen; for Inhibition of Factor 11 protein relative to the PBS control: plasma ELISA
Protocol: (§1) Groups, each consisting of two male and three female monkeys, were injected subcutaneously with ISIS 416838, ISIS 416850, ISIS 416858, ISIS 416864, or ISIS 417002 in escalating doses. Antisense oligonucleotide was administered to the monkeys at 5 mg/kg three times per a week for week 1; 5 mg/kg twice per week for weeks 2 and 3; 10 mg/kg three times per week for week 4; 10 mg/kg twice per week for weeks 5 and 6; 25 mg/kg three times per week for week 7; and 25 mg/kg twice per week for weeks 8, 9, 10, 11, and 12. One control group, consisting of two male and three female monkeys, was injected subcutaneously with PBS according to the same dosing regimen. An additional experimental group, consisting of two male and three female monkeys, was injected subcutaneously with ISIS 416850 in a chronic, lower dose regimen. Antisense oligonucleotide was administered to the monkeys at 5 mg/kg three times per week for week 1; 5 mg/kg twice per week for week 2 and 3; 10 mg/kg three times per week for week 4; and 10 mg/kg twice per week for weeks 5 to 12. Body weights were measured weekly. Blood samples were collected 14 days and 5 days before the start of treatment and subsequently once per week for Factor 11 protein activity analysis in plasma, fibrinogen measurement, PT and aPTT measurements, bleeding times, and measurement of various hematologic factors. On day 85, the monkeys were euthanized by exsanguination while under deep anesthesia, and organs harvested for further analysis.
Plasma samples from all monkey groups taken on different days were analyzed by a sandwich-style ELISA assay (Affinity Biologicals Inc.) using an affinity-purified polyclonal anti-Factor 11 antibody as the capture antibody and a peroxidase-conjugated polyclonal anti-Factor 11 antibody as the detecting antibody. Monkey plasma was diluted 1:50 for the assay. Peroxidase activity was expressed by incubation with the substrate o-phenylenediamine. The color produced was quantified using a microplate reader at 490 nm and was considered to be proportional to the concentration of Factor 11 in the samples.
The results are presented in Table 115, expressed as percentage reduction relative to that of the PBS control.

[4] = mouse, in vivo, sc, 50 mg/kg
[5] = Kidney function, urine protein to creatinine ratio in cynomolgus monkeys (Example 45); format: in vivo
Protocol: as §1
To evaluate the impact of ISIS oligonucleotides on kidney function, urine samples were collected.

[6] = Tolerability in CD1 mice: body weight and organ weights (Example 37); conditions: 50 mg/kg s.c. twice per week for 6 weeks
Protocol: Body weight was measured at the onset of the study and subsequently twice per week. The body weights of the mice are presented in Table 80 and are expressed increase in grams over the PBS control weight taken before the start of treatment. Liver, spleen, and kidney weights were measured at the end of the study, and are also presented in Table 80 as percentage of the body weight.

Substance: 412223 (antisense ACAGTTTCTGGCAGGCCTCG; 5-10-5 MOE gapmer, further chemistry not given here) [compound 412223]
- Half-life of ISIS oligonucleotides in the liver and kidney [1]: 22 days

Substance: 413482 (antisense GGACGGCATTGGTGCACAGT; 5-10-5 MOE gapmer, further chemistry not given here) [compound 413482]
- Half-life of ISIS oligonucleotides in the liver and kidney [1]: 20 days

Substance: ISIS 449708: 3-8-3, 4-8-4, 2-10-2, 3-10-3 or 4-10-4 MOE microwalk gapmer (Table 46) (antisense eA*e[5mC]*eA*dG*dT*dT*dT*d[5mC]*dT*dG*dG*e[5mC]*eA*eG)
- ALT [2]: 66 IU/L
- AST [2]: 103 IU/L
- Albumin [2]: 2.8
- Bilirubin [2]: 0.17 mg/dL
- Change in Kidney weight [3]: 0%
- Change in Liver weight [3]: +17%
- Change in Spleen weight [3]: +66%

Substance: ISIS 416858: MOE gapmer, nucleobases 1275 to 1318 of SEQ ID NO: 1 (Table 8) (antisense ACGGCATTGGTGCACAGTTT; MOE gapmer, wing and gap sizes not given here)
- Factor 11 protein levels in plasma (Factor 11 protein; cynomolgus monkeys, ELISA): time-dependent decrease in protein levels
- Inhibition of Factor 11 protein relative to the PBS control (Factor 11 protein; day 8): 6%
- Inhibition of Factor 11 protein relative to the PBS control (Factor 11 protein; day 15): 16%
- Inhibition of Factor 11 protein relative to the PBS control (Factor 11 protein; day 22): 23%
- Inhibition of Factor 11 protein relative to the PBS control (Factor 11 protein; day 29): 28%
- Inhibition of Factor 11 protein relative to the PBS control (Factor 11 protein; day 36): 35%
- Inhibition of Factor 11 protein relative to the PBS control (Factor 11 protein; day 43): 39%
- Inhibition of Factor 11 protein relative to the PBS control (Factor 11 protein; day 50): 49%
- Inhibition of Factor 11 protein relative to the PBS control (Factor 11 protein; day 57): 60%
- Inhibition of Factor 11 protein relative to the PBS control (Factor 11 protein; day 64): 68%
- Inhibition of Factor 11 protein relative to the PBS control (Factor 11 protein; day 71): 71%
- Inhibition of Factor 11 protein relative to the PBS control (Factor 11 protein; day 78): 73%
- Inhibition of Factor 11 protein relative to the PBS control (Factor 11 protein; day 85): 78%
- Inhibition of Factor 11 protein relative to the PBS control (Factor 11 protein; day −5): 0%
- Inhibition of Factor 11 protein relative to the PBS control (Factor 11 protein; day −14): 0%
- ALT [4]: 640 IU/L
- AST [4]: 547 IU/L
- Bilirubin [4]: 0.28 mg/dL
- Cholesterol [4]: 181 mg/dL
- urine protein to creatinine ratio ([5]; Day 80): 0.10
- urine protein to creatinine ratio ([5]; Day 84): 0.07
- body weight ([6]; increase in grams over the PBS control weight taken before the start of treatment): 12 g
- Kidney weight ([6]; percentage of the body weight): 1.6%
- Liver weight ([6]; percentage of the body weight): 7%
- Spleen weight ([6]; percentage of the body weight): 0.6%

Substance: 412225 (antisense GCAGCGGACGGCATTGGTGC; 5-10-5 MOE gapmer, further chemistry not given here) [compound 412225]
- Half-life of ISIS oligonucleotides in the liver and kidney [1]: 21 days

Substance: ISIS 449710: 3-8-3, 4-8-4, 2-10-2, 3-10-3 or 4-10-4 MOE microwalk gapmer (Table 46) (antisense e[5mC]*eA*e[5mC]*dA*dG*dT*dT*dT*d[5mC]*dT*dG*dG*d[5mC]*eA*eG*eG)
- ALT [2]: 43 IU/L
- AST [2]: 95 IU/L
- Albumin [2]: 2.8
- Bilirubin [2]: 0.18 mg/dL
- Change in Kidney weight [3]: −7%
- Change in Liver weight [3]: +6%
- Change in Spleen weight [3]: +43%

Substance: ISIS 417002: MOE gapmer, nucleobases 1275 to 1318 of SEQ ID NO: 1 (Table 8) (antisense GGTGCACAGTTTCTGGCAGG; MOE gapmer, wing and gap sizes not given here)
- Inhibition of Factor 11 protein relative to the PBS control (Factor 11 protein; day 8): 0%
- Inhibition of Factor 11 protein relative to the PBS control (Factor 11 protein; day 15): 4%
- Inhibition of Factor 11 protein relative to the PBS control (Factor 11 protein; day 22): 2%
- Inhibition of Factor 11 protein relative to the PBS control (Factor 11 protein; day 29): 8%
- Inhibition of Factor 11 protein relative to the PBS control (Factor 11 protein; day 36): 8%
- Inhibition of Factor 11 protein relative to the PBS control (Factor 11 protein; day 43): 9%
- Inhibition of Factor 11 protein relative to the PBS control (Factor 11 protein; day 50): 13%
- Inhibition of Factor 11 protein relative to the PBS control (Factor 11 protein; day 57): 24%
- Inhibition of Factor 11 protein relative to the PBS control (Factor 11 protein; day 64): 26%
- Inhibition of Factor 11 protein relative to the PBS control (Factor 11 protein; day 71): 30%
- Inhibition of Factor 11 protein relative to the PBS control (Factor 11 protein; day 78): 22%
- Inhibition of Factor 11 protein relative to the PBS control (Factor 11 protein; day 85): 23%
- Inhibition of Factor 11 protein relative to the PBS control (Factor 11 protein; day −5): 0%
- Inhibition of Factor 11 protein relative to the PBS control (Factor 11 protein; day −14): 0%
- urine protein to creatinine ratio ([5]; Day 80): 0.18
- urine protein to creatinine ratio ([5]; Day 84): 0.24

Substance: ISIS 449709: 3-8-3, 4-8-4, 2-10-2, 3-10-3 or 4-10-4 MOE microwalk gapmer (Table 46) (antisense eG*e[5mC]*eA*e[5mC]*dA*dG*dT*dT*dT*d[5mC]*dT*dG*dG*d[5mC]*eA*eG*eG*e[5mC])
- ALT [2]: 62 IU/L
- AST [2]: 83 IU/L
- Albumin [2]: 2.8
- Bilirubin [2]: 0.18 mg/dL
- Change in Kidney weight [3]: −14%
- Change in Liver weight [3]: +15%
- Change in Spleen weight [3]: +62%

Substance: 412224 (antisense GCATTGGTGCACAGTTTCTG; 5-10-5 MOE gapmer, further chemistry not given here) [compound 412224]
- Half-life of ISIS oligonucleotides in the liver and kidney [1]: 17 days

Substance: ISIS 449711: 3-8-3, 4-8-4, 2-10-2, 3-10-3 or 4-10-4 MOE microwalk gapmer (Table 46) (antisense eA*e[5mC]*dA*dG*dT*dT*dT*d[5mC]*dT*dG*dG*d[5mC]*eA*eG)
- ALT [2]: 52 IU/L
- AST [2]: 83 IU/L
- Albumin [2]: 2.8
- Bilirubin [2]: 0.22 mg/dL
- Change in Kidney weight [3]: −12%
- Change in Liver weight [3]: +18%
- Change in Spleen weight [3]: +63%

Substance: ISIS 449707: 3-8-3, 4-8-4, 2-10-2, 3-10-3 or 4-10-4 MOE microwalk gapmer (Table 46) (antisense e[5mC]*eA*e[5mC]*eA*dG*dT*dT*dT*d[5mC]*dT*dG*dG*e[5mC]*eA*eG*eG)
- ALT [2]: 41 IU/L
- AST [2]: 62 IU/L
- Albumin [2]: 2.3
- Bilirubin [2]: 0.19 mg/dL
- Change in Kidney weight [3]: −5%
- Change in Liver weight [3]: +11%
- Change in Spleen weight [3]: +63%

Substance: ISIS 416838: MOE gapmer, nucleobases 1018 to 1042 of SEQ ID NO: 1 (Table 6) (antisense GCAACCGGGATGATGAGTGC; MOE gapmer, wing and gap sizes not given here)
- Inhibition of Factor 11 protein relative to the PBS control (Factor 11 protein; day 8): 3%
- Inhibition of Factor 11 protein relative to the PBS control (Factor 11 protein; day 15): 4%
- Inhibition of Factor 11 protein relative to the PBS control (Factor 11 protein; day 22): 5%
- Inhibition of Factor 11 protein relative to the PBS control (Factor 11 protein; day 29): 8%
- Inhibition of Factor 11 protein relative to the PBS control (Factor 11 protein; day 36): 11%
- Inhibition of Factor 11 protein relative to the PBS control (Factor 11 protein; day 43): 5%
- Inhibition of Factor 11 protein relative to the PBS control (Factor 11 protein; day 50): 8%
- Inhibition of Factor 11 protein relative to the PBS control (Factor 11 protein; day 57): 10%
- Inhibition of Factor 11 protein relative to the PBS control (Factor 11 protein; day 64): 11%
- Inhibition of Factor 11 protein relative to the PBS control (Factor 11 protein; day 71): 12%
- Inhibition of Factor 11 protein relative to the PBS control (Factor 11 protein; day 78): 10%
- Inhibition of Factor 11 protein relative to the PBS control (Factor 11 protein; day 85): 10%
- Inhibition of Factor 11 protein relative to the PBS control (Factor 11 protein; day −5): 0%
- Inhibition of Factor 11 protein relative to the PBS control (Factor 11 protein; day −14): 0%
- urine protein to creatinine ratio ([5]; Day 80): 0.13
- urine protein to creatinine ratio ([5]; Day 84): 0.13

Substance: 416856 (antisense GGCATTGGTGCACAGTTTCT; 5-10-5 gapmer, further chemistry not given here) [compound 416856]
- Half-life of ISIS oligonucleotides in the liver and kidney [1]: 19 days
